Columns and labels:
[1] = test system: SiHa HPV 16 positive cervical cancer cells; assay: MTT assay, SiHa cells; format: cell-based, human; details: 72 h
Procedure: (§1) SiHa and HeLa cervical cancer cells and Human Dermal Fibroblasts (HDF) were cultured in DMEM (Sigma-Aldrich, St Louis, Mo., USA). The medium was supplemented with 10% fetal calf serum (BioClear, Wiltshire, UK), 2 mM L-glutamin, 100 U/ml penicillin, 100 μg/ml streptomycin (Sigma-Aldrich).
(§2) The MTT assay is a colorimetric assay widely used to study cell viability. It is based on the ability of NAD(P)H-dependent cellular oxidoreductase enzymes to reduce the MTT tetrazolium dye. The cells were treated with 0, 5, 10, 20 & 40 μM of OVT & AA for 72 h and then MTT was added and cytotoxicity was analyzed by a plate reader.
(§3) HPV-positive cervical cancer cells, SiHa, Hela cells, patient-derived HPV positive head and neck cancer cells and non-cancer human fibroblasts were treated with OVT at the dose range of 0, 5, 10, 20 and 40 μM and subjected to MTT assay and IC50 values were determined.

[2] = test system: HeLa HPV 18 positive cervical cancer cells; assay: MTT assay, HeLa cells; format: cell-based, human; details: 72 h
Procedure: as §1, §2, §3

[3] = test system: UT-SCC 60A patient derived HPV positive Head and Neck cancer cells; assay: MTT assay, UT-SCC 60A; format: cell-based, human; details: 72 h
Procedure: as §2, §3

[4] = test system: UT-SCC 60B patient derived HPV positive Head and Neck cancer cells; assay: MTT assay, UT-SCC 60B; format: cell-based, human; details: 72 h
Procedure: as §2, §3

[5] = test system: UT-SCC 65 patient derived HPV positive Head and Neck cancer cells; assay: MTT assay, UT-SCC 65; format: cell-based, human; details: UT-SCC 65, 72 h
Procedure: as §2, §3

[6] = test system: UT-SCC 69 patient derived HPV positive Head and Neck cancer cells; assay: MTT assay, UT-SCC 69; format: cell-based, human; details: UT-SCC 69, 72 h
Procedure: as §2, §3

[7] = test system: UT-SCC 102 patient derived HPV positive Head and Neck cancer cells; assay: MTT assay, UT-SCC 102; format: cell-based, human; details: UT-SCC 102, 72 h
Procedure: as §2, §3

[8] = test system: non-cancer human fibroblast cells; assay: MTT assay, non-cancer human fibroblasts; format: cell-based; details: 72 h
Procedure: as §2, §3

SiHa cells [9] = assay: Activated caspase-3 by flow cytometry; format: cell-based, human
Procedure: SiHa cells were treated with 0, 20 & 40 μM AA or OVT or solvent control for 24 & 48 h. Activated caspase-3 in cells was labeled with phyco-erythrin-conjugated antibody according to manufacturer's protocol (PE Active Caspase-3 Apoptosis Kit; BD Pharmingen, San Diego, Calif.) and analyzed by FACSCalibur flow cytometer (FL-2, FSC, BD Pharmingen).
We then incubated the cells with 0, 20 & 40 μM AA & OVT 24 and 48 hours, and determined the percentage of cells that contained activated caspase-3 as a measure of apoptosis.

[10] = test system: K87 primary skin fibroblast cells; assay: MTT assay, K87 fibroblasts; format: cell-based, human; details: 72 h
Procedure: as §2, §3

[11] = test system: K74 primary skin fibroblast cells; assay: MTT assay, K74 fibroblasts; format: cell-based, human; details: 72 h
Procedure: as §2, §3

SiHa cells [12] = assay: Phase contrast microscopy of SiHa cells; format: cell-based, human; details: 40 μM
From the text: In order to examine the mechanism underlying the previously reported cytotoxicity of OVT, we investigated if OVT would induce apoptotic death of cultured SiHa cervical cancer cells.

SiHa cells [13] = assay: Cell-IQ high content imaging, proliferation of SiHa; format: cell-based, human; details: various doses, till 72 h
Procedure: (§4) SiHa cells—HPV 16 positive cervical cancer cell line; HeLa—HPV 18 positive cervical cancer cell line. […] Numbers 1-6 on the x-axis indicate 12 h intervals. The area of the plate that cells cover is indicated on the y-axis (arbitrary number of units).
(§5) The Cell-IQ Real-time imaging provides information on how the compounds are affecting cell morphology and cell proliferation at various doses up to 72 h. A rigorous image analysis protocol was developed to assess the effects of the compounds on cell proliferation.
(§6) The cells were imaged by high content imaging in Cell-IQ and the proliferation of the cells was observed till 72 h.

HeLa cells = assay: Cell-IQ high content imaging, proliferation of HeLa; format: cell-based, human; details: various doses, till 72 h
Procedure: as §4, §5, §6

SiHa cells [14] = assay: Western blotting of SiHa cell lysates; format: cell-based, human
Procedure: Whole cell lysates were prepared by lysing the cells in Laemmli sample buffer (Laemmli, 1970) and boiling the samples for 10 min after which proteins were separated in 12.5-15% SDS-PAGE. Western blotting was performed using antibodies against caspase 3 (Cell Signaling), HPV16 E6, E7 (Santa Cruz Biotechnology, Inc, Santa Cruz, Calif.), and […] (clone AC-40; Sigma-Aldrich). Horseradish peroxidase-conjugated secondary antibodies were obtained from Southern Biotechnology Associates (Birmingham, Ala.), Promega (Madison, Wis.) and Amersham Biosciences (Freiburg, Germany). The results were visualized using the ECL method (Amersham Biosciences) on X-ray film. The presented Western blot results are representative of at least three independent experiments. SiHa cervical cancer cells have been transformed by high-risk human papillomavirus (HPV). As E6 and E7 play such critical roles in SiHa cell transformation, the expression of these viral proteins was examined.

Row | Molecule | IC50 [1] [µM] | IC50 [2] [µM] | IC50 [3] [µM] | IC50 [4] [µM] | IC50 [5] [µM] | IC50 [6] [µM] | IC50 [7] [µM] | toxicity to non-cancer human fibroblast cells [8] | activation of caspase-3 (SiHa cells [9]; 40 μM, after 48 h) | IC50 [10] [µM] | IC50 [11] [µM] | cell death in SiHa cells (SiHa cells [12]) | effect on cell morphology (SiHa cells [12]; 72 hours, SiHa) | cell proliferation (SiHa cells [13]) | cell proliferation (HeLa cells) | activation of caspase-3 (SiHa cells [9]; 20 μM, after 24 h, compared with 40 μM AA after 48 h) | activation of caspase-3 compared to AA at the same concentration (SiHa cells [9]; 40 μM, after 48 h) | cleavage of caspase-3 (SiHa cells [14]; 20-40 μM) | HPV E6 and E7 viral proteins (SiHa cells [14]; Western blot) | cIAP2 protein level (SiHa cells [14]; Western blot)
1 | C=C1C(=O)OC2/C=C(/C)CC/C=C(\C(=O)O)CC/C=C(\C)CCC12 (stereo not drawn) [Anisomelic acid (AA), Anisomelic acid, reference compound] | 32.1 | 33.2 | 18 | 22.8 | 42.8 | 23.9 | 28.2 | not toxic at all | marked activation |  |  |  |  |  |  |  |  |  |  | 
2 | Ovatodiolide | 10.7 | 10.7 | 5.53 | 3.33 | 14.1 | 0.859 | 7.73 |  |  | 19.7 | 13.2 | induced cell death | clear effect on cell morphology | inhibited the cell proliferation | inhibited the cell proliferation | higher activation | almost doubled | induced the cleavage | downregulation | downregulation
